Data reported in patent US20200147243A1, “LIGAND COMPOUND OF ALPHA7 NICOTINIC ACETYLCHOLINE RECEPTOR AND APPLICATION THEREOF” (BEIJING NORMAL UNIVERSITY, priority 2017, published 2020).
Where “and” joins values, the source holds several entries; their conditions need not be identical. Equal values may be shown once.

Assays:
[1] = In vivo distribution experiment in animals; conditions: for brain/blood ratio / Absorption Amount, blood / Absorption Amount, bone / Absorption Amount, brain / Absorption Amount, heart / Absorption Amount, kidney / Absorption Amount, liver / Absorption Amount, lung / Absorption Amount, muscle / Absorption Amount, spleen: female Kunming mice; for Absorption Amount, blood / Absorption Amount, bone / Absorption Amount, brain / Absorption Amount, heart / Absorption Amount, kidney / Absorption Amount, liver / Absorption Amount, lung / Absorption Amount, muscle / Absorption Amount, spleen: tail vein
[2] = Rat PET imaging (micro-PET/CT); format: in vivo; conditions: female CD-1 rats, images at 15, 30, 60 min
Protocol: The radioligand [^18F] II-15 (0.3 mL, 200 μCi) was injected into bodies of female CD-1 rats (180-200 g) in a manner of tail vein injection, then the rats were anesthetized with 3% isoflurane to be coma, and the rats were fixed in a prone posture on a micro-PET/CT imaging instrument (Super Argus PET 4R L/CT 180) for small animals, maintaining the rats in an anesthetic state by employing 1% isoflurane in the scanning imaging process. Image acquisition was carried out respectively 15 min, 30 min and 60 min after the administration, to observe the distribution condition of [^18F] II-15 in the brains of the rats.

[3] = In vitro stability experiment in fetal bovine serum and normal saline; format: in vitro ADME
Protocol: The in vitro stability of the radioligand is of great importance for its further in vivo studies. Generally, the in vitro stability study is carried out in normal saline and animal serum. A specific method was as follows: respectively incubating 10 μCi of HPLC-purified radioligand [^18F] II-15 and 100 μL of fetal bovine serum at 37° C. for 1 h and 2 h, adding 200 μL of acetonitrile thereto after finishing the incubation to fully precipitate proteins, then centrifuging at […] for 5 min (7000 rpm), collecting supernatant, filtering the supernatant with filter membrane, and then performing HPLC analysis on 100 μL of the filtered supernatant; incubating 10 μCi of HPLC-purified radioligand [^18F] II-15 with 100 μL of normal saline at room temperature for 1 h and 2 h, respectively, and then directly analyzing by HPLC.

[4] = Lipid water partition coefficient (n-octanol / PBS pH 7.4); format: physicochemical; conditions: read-out: lipid water partition coefficient log P
[5] = molecular target: T1, α4β2 nAChR (Mus musculus, UniProt O70174+Q9ERK7); assay: Selective experiment in mouse brain, cytisine pre-injection; format: in vivo, Kunming mice; conditions: 1 mg/kg cytisine s.c. 5 min in advance, 60 min after administration
T1 construct: from tissue
T1 sequence (O70174 31-629): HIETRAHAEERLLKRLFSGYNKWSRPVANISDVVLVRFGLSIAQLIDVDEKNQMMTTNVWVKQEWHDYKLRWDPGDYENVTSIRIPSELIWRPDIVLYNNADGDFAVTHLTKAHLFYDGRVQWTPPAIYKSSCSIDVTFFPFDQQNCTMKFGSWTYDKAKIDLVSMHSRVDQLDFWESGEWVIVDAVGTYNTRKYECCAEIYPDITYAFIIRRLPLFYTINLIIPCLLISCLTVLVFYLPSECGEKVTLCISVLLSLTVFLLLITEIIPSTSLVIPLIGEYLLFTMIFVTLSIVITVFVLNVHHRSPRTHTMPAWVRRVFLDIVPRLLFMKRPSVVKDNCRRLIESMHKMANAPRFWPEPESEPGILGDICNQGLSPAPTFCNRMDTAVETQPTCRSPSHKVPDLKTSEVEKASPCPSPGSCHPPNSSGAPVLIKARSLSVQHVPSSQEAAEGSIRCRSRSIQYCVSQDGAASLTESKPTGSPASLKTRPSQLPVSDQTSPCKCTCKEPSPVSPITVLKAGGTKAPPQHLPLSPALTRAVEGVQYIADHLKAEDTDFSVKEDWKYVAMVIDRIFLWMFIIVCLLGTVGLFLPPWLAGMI
T1 sequence (Q9ERK7 26-501): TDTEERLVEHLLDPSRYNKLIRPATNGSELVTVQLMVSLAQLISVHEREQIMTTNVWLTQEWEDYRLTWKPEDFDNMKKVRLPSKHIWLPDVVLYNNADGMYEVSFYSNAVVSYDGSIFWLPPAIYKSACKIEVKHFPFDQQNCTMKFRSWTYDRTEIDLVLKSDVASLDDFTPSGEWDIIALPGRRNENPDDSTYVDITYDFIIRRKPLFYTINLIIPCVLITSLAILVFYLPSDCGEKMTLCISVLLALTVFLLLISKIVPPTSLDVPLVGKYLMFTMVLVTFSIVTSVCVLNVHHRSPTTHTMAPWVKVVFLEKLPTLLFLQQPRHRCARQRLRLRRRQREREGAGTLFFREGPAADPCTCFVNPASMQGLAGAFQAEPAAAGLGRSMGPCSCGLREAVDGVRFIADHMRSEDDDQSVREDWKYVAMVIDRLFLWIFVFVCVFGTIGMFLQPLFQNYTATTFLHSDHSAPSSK
Protocol: (§1) The selectivity of radioligand for α4β2 nAChR was explored by subcutaneously injecting 1 mg/kg of cytisine (0.1 mL, with an equal volume of normal saline and 1,2-propanediol as solvents) 5 min in advance, whereas the selectivity for the 5-hydroxytryptamine receptor was explored by subcutaneously injecting 2 mg/kg of ondanstron (0.1 mL, with saline:DMSO=5:1 (V:V) as solvents) 10 min in advance. In the experiment, two groups of mice (n=5, Kunming females, 28-30 g) were injected with 0.1 mL (60 μCi) of [^18F]

[6] = molecular target: T2, 5-hydroxytryptamine receptor (Mus musculus, UniProt P23979); assay: Selective experiment in mouse brain, ondanstron pre-injection; format: in vivo, Kunming mice; conditions: 2 mg/kg ondanstron s.c. 10 min in advance, 60 min after administration
T2 construct: from tissue
T2 sequence (P23979 24-489): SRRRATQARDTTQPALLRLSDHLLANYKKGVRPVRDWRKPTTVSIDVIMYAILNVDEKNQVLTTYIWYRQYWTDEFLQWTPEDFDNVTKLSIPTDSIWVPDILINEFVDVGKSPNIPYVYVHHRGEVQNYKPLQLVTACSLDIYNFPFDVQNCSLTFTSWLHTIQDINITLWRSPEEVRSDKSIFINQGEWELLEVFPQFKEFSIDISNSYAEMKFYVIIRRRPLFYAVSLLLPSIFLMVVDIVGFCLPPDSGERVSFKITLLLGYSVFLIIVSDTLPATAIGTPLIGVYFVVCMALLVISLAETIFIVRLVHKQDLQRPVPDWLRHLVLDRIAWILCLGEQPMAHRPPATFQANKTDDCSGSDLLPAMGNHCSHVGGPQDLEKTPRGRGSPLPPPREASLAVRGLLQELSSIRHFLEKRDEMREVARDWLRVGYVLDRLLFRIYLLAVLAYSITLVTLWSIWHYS
Protocol: as §1

O=C1c2cc(N3CCN4CCC3CC4)ccc2-c2cccc([18F])c21 [[^18F] II-15]
in vivo defluorination phenomenon (bone absorption) ([1]; 5-90 min, mice): relatively weaker | brain/blood ratio ([1]; 5 min): 6.23 | brain/blood ratio ([1]; 15 min): 9.57 and 9.35 | brain/blood ratio ([1]; 30 min): 9.57 | brain/blood ratio ([1]; 60 min): 8.03 | brain/blood ratio ([1]; 90 min): 6.98 | Absorption Amount, blood ([1]; 5 min): 1.43 ± 0.06 % ID/g wet weight | Absorption Amount, blood ([1]; 15 min): 1.24 ± 0.16 % ID/g wet weight | Absorption Amount, blood ([1]; 30 min): 1.03 ± 0.07 % ID/g wet weight | Absorption Amount, blood ([1]; 60 min): 0.68 ± 0.01 % ID/g wet weight | Absorption Amount, blood ([1]; 90 min): 0.52 ± 0.06 % ID/g wet weight | Absorption Amount, bone ([1]; 5 min): 3.02 ± 0.11 % ID/g wet weight | Absorption Amount, bone ([1]; 15 min): 4.55 ± 0.68 % ID/g wet weight | Absorption Amount, bone ([1]; 30 min): 4.84 ± 0.18 % ID/g wet weight | Absorption Amount, bone ([1]; 60 min): 7.27 ± 1.31 % ID/g wet weight | Absorption Amount, bone ([1]; 90 min): 7.65 ± 0.52 % ID/g wet weight | Absorption Amount, brain ([1]; 5 min): 8.98±0.41 % ID/g wet weight | Absorption Amount, brain ([1]; 15 min): 11.60±0.14 % ID/g wet weight | Absorption Amount, brain ([1]; 30 min): 9.86 ± 0.05 % ID/g wet weight | Absorption Amount, brain ([1]; 60 min): 5.46±0.27 % ID/g wet weight | Absorption Amount, brain ([1]; 90 min): 3.63±0.25 % ID/g wet weight | Absorption Amount, heart ([1]; 5 min): 8.37 ± 0.14 % ID/g wet weight | Absorption Amount, heart ([1]; 15 min): 4.45 ± 0.62 % ID/g wet weight | Absorption Amount, heart ([1]; 30 min): 3.56 ± 0.31 % ID/g wet weight | Absorption Amount, heart ([1]; 60 min): 2.19 ± 0.16 % ID/g wet weight | Absorption Amount, heart ([1]; 90 min): 1.71 ± 0.13 % ID/g wet weight | Absorption Amount, kidney ([1]; 5 min): 15.92 ± 0.24 % ID/g wet weight | Absorption Amount, kidney ([1]; 15 min): 11.54 ± 0.79 % ID/g wet weight | Absorption Amount, kidney ([1]; 30 min): 8.06 ± 0.69 % ID/g wet weight | Absorption Amount, kidney ([1]; 60 min): 4.85 ± 0.443 % ID/g wet weight | Absorption Amount, kidney ([1]; 90 min): 4.26 ± 0.19 % ID/g wet weight | Absorption Amount, liver ([1]; 5 min): 8.19 ± 1.19 % ID/g wet weight | Absorption Amount, liver ([1]; 15 min): 12.28 ± 1.96 % ID/g wet weight | Absorption Amount, liver ([1]; 30 min): 13.74 ± 1.36 % ID/g wet weight | Absorption Amount, liver ([1]; 60 min): 9.74 ± 0.07 % ID/g wet weight | Absorption Amount, liver ([1]; 90 min): 7.46 ± 0.19 % ID/g wet weight | Absorption Amount, lung ([1]; 5 min): 70.52 ± 7.86 % ID/g wet weight | Absorption Amount, lung ([1]; 15 min): 20.23 ± 1.51 % ID/g wet weight | Absorption Amount, lung ([1]; 30 min): 18.30 ± 1.56 % ID/g wet weight | Absorption Amount, lung ([1]; 60 min): 7.64 ± 0.99 % ID/g wet weight | Absorption Amount, lung ([1]; 90 min): 4.99 ± 0.45 % ID/g wet weight | Absorption Amount, muscle ([1]; 5 min): 5.51 ± 0.65 % ID/g wet weight | Absorption Amount, muscle ([1]; 15 min): 3.48 ± 0.40 % ID/g wet weight | Absorption Amount, muscle ([1]; 30 min): 2.36 ± 0.30 % ID/g wet weight | Absorption Amount, muscle ([1]; 60 min): 1.79 ± 0.06 % ID/g wet weight | Absorption Amount, muscle ([1]; 90 min): 1.32 ± 0.11 % ID/g wet weight | Absorption Amount, spleen ([1]; 5 min): 7.72 ± 0.65 % ID/g wet weight | Absorption Amount, spleen ([1]; 15 min): 11.58 ± 0.92 % ID/g wet weight | Absorption Amount, spleen ([1]; 30 min): 8.67 ± 0.48 % ID/g wet weight | Absorption Amount, spleen ([1]; 60 min): 4.08 ± 0.38 % ID/g wet weight | Absorption Amount, spleen ([1]; 90 min): 2.97 ± 0.25 % ID/g wet weight | time of highest brain uptake in PET images [2]: 15 min | radiochemical purity after incubation ([3]; fetal calf serum, 37° C., 1 h): greater than 98% | radiochemical purity after incubation ([3]; fetal calf serum, 37° C., 2 h): greater than 98% | radiochemical purity after incubation ([3]; normal saline, room temperature, 1 h): greater than 98% | radiochemical purity after incubation ([3]; normal saline, room temperature, 2 h): greater than 98% | logP [4]: 1.64 ± 0.12 | difference in brain uptake between experimental group and control group [5]: no significant difference | difference in brain uptake between experimental group and control group [6]: no significant difference
